The text below walks through data of PubChem BioAssay AID256 (DTP/NCI, 2004).

The experiment concerns CD2F1 mice, L1210 leukemia ip, survival T/C. Kind of experiment: NCI In Vivo Anticancer Drug Screen. Data for tumor model L1210 Leukemia (intraperitoneal) in CD2F1 (CDF1) mice. As to conditions: higher = longer survival. In outline: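 Tumor-bearing mice (transplanted tumor) were split into treated and vehicle control groups, and the measured endpoint of each treated group was divided by that of its vehicle controls.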

Where [1] appears, read: endpoint: mean survival time, dose: 100.0 mg/kg/injection, schedule: Q04DX002 (ip), vehicle: saline with Tween-80.
[2] abbreviates: endpoint: mean survival time, dose: 200.0 mg/kg/injection, schedule: Q04DX002 (ip), vehicle: saline with Tween-80.
[3] abbreviates: endpoint: mean survival time, dose: 100.0 mg/kg/injection, schedule: Q01DX001 (ip), vehicle: saline with Tween-80.
Where [4] appears, read: endpoint: mean survival time, dose: 200.0 mg/kg/injection, schedule: Q01DX001 (ip), vehicle: saline with Tween-80.
Where [5] appears, read: endpoint: mean survival time, dose: 100.0 mg/kg/injection, schedule: Q04DX003 (ip), vehicle: saline.
Where [6] appears, read: endpoint: mean survival time, dose: 200.0 mg/kg/injection, schedule: Q04DX003 (ip), vehicle: saline.
Where [7] appears, read: endpoint: mean survival time, dose: 50.0 mg/kg/injection, schedule: Q01DX009 (ip), vehicle: saline with Tween-80.
[8] abbreviates: endpoint: mean survival time, dose: 100.0 mg/kg/injection, schedule: Q01DX009 (ip), vehicle: saline with Tween-80.
Setting [9] is: endpoint: mean survival time, dose: 200.0 mg/kg/injection, schedule: Q01DX009 (ip), vehicle: saline with Tween-80.

“And” between values parts separate entries of the source, which are not always exact repeats. Equal entries are not always repeated. Toxic doses and inconclusive results are not listed.

With `C1=N/C=C\C=C/c2ccc[n+](CCCCC[n+]3ccccc3-c3ccccn3)c21`, the T/C was 98 % of control (endpoint: mean survival time, dose: 7.5 mg/kg/injection, schedule: Q01DX001 (ip), vehicle: saline); 108 % of control (endpoint: mean survival time, dose: 7.5 mg/kg/injection, schedule: Q04DX003 (ip), vehicle: saline); 98 % of control (endpoint: mean survival time, dose: 15.0 mg/kg/injection, schedule: Q01DX001 (ip), vehicle: saline); 100 % of control (endpoint: mean survival time, dose: 15.0 mg/kg/injection, schedule: Q04DX003 (ip), vehicle: saline); 98 % of control (endpoint: mean survival time, dose: 30.0 mg/kg/injection, schedule: Q01DX001 (ip), vehicle: saline); 102 % of control (endpoint: mean survival time, dose: 30.0 mg/kg/injection, schedule: Q04DX003 (ip), vehicle: saline).

Take `Cc1cn(C2CC(O)C(CO)O2)c(=O)[n]([Hg][c]2ccccc2)c1=O` (centres undefined): the T/C is, setting by setting: (endpoint: median survival time, dose: 0.79 mg/kg/injection, schedule: Q01DX005 (ip), vehicle: saline) 110 % of control; (endpoint: median survival time, dose: 1.56 mg/kg/injection, schedule: Q01DX005 (ip), vehicle: saline) 103 % of control; (endpoint: median survival time, dose: 3.12 mg/kg/injection, schedule: Q01DX005 (ip), vehicle: saline) 112 % of control; (endpoint: median survival time, dose: 6.25 mg/kg/injection, schedule: Q01DX005 (ip), vehicle: saline) 103 % of control; (endpoint: median survival time, dose: 12.5 mg/kg/injection, schedule: Q01DX005 (ip), vehicle: saline) 103 % of control.

For the molecule `CC1C=COCCO1` (centres undefined) (tested in a mixture with another compound), the T/C is, setting by setting: (endpoint: mean survival time, dose: 100.0 mg/kg/injection, schedule: Q04DX003 (ip), vehicle: acetone) 97 % of control; (endpoint: mean survival time, dose: 200.0 mg/kg/injection, schedule: Q04DX003 (ip), vehicle: acetone) 98 % of control; (endpoint: mean survival time, dose: 400.0 mg/kg/injection, schedule: Q04DX003 (ip), vehicle: acetone) 98 % of control.

Regarding `Clc1ccc(NC2=NCCO2)cc1`, the T/C (endpoint: mean survival time, dose: 100.0 mg/kg/injection, schedule: Q04DX003 (ip), vehicle: Klucel (hydroxypropylcellulose) (HPC)) is 94 % of control.

As for `COc1ccccc1NC(=O)Oc1ccc(Cl)cc1Cl`, the T/C under setting [1] was 103 % of control and the T/C under setting [2] is 95 % of control.

On to `O=C(O)CCCCCNCC(CNCCCCCC(=O)O)(C(=O)O)C(=O)O`, for which the T/C runs as follows: under setting [1], 104 % of control; under setting [2], 96 % of control; (endpoint: mean survival time, dose: 400.0 mg/kg/injection, schedule: Q04DX002 (ip), vehicle: saline with Tween-80) 111 % of control.

Take `COC(=O)/C=N/Nc1ccc(C)cc1`: the T/C (endpoint: mean survival time, dose: 100.0 mg/kg/injection, schedule: Q01DX009 (ip), vehicle: water) was 86 % of control; the T/C (endpoint: mean survival time, dose: 200.0 mg/kg/injection, schedule: Q01DX009 (ip), vehicle: water) is 88 % of control; the T/C (endpoint: mean survival time, dose: 400.0 mg/kg/injection, schedule: Q01DX009 (ip), vehicle: water) was 86 % of control.

For `CC(O)c1cc2ccccc2n1C` (centres undefined), the T/C is, setting by setting: under setting [3], 98 % of control; under setting [4], 103 % of control; (endpoint: mean survival time, dose: 400.0 mg/kg/injection, schedule: Q01DX001 (ip), vehicle: saline with Tween-80) 101 % of control.

With `CNNCCCC(=O)NC(C)C`, the T/C is, setting by setting: (endpoint: mean survival time, dose: 25.0 mg/kg/injection, schedule: Q04DX003 (ip), vehicle: saline) 105 % of control; (endpoint: mean survival time, dose: 50.0 mg/kg/injection, schedule: Q04DX003 (ip), vehicle: saline) 103 % of control; under setting [5], 110 % of control; under setting [6], 112 % of control.

Turning to `COc1ccc(CCN(C=O)CCc2ccc(OC)c(OC)c2)cc1OC`, the T/C is, setting by setting: (endpoint: mean survival time, dose: 12.5 mg/kg/injection, schedule: Q01DX009 (ip), vehicle: other) 98 % of control; (endpoint: mean survival time, dose: 25.0 mg/kg/injection, schedule: Q01DX009 (ip), vehicle: other) 101 % of control; (endpoint: mean survival time, dose: 50.0 mg/kg/injection, schedule: Q01DX009 (ip), vehicle: other) 93 % of control; (endpoint: mean survival time, dose: 100.0 mg/kg/injection, schedule: Q01DX009 (ip), vehicle: other) 103 % of control; (endpoint: mean survival time, dose: 200.0 mg/kg/injection, schedule: Q01DX009 (ip), vehicle: other) 103 % of control.

As for `CCOC(=O)C1(C(=O)OCC)C(C)CC2Nc3cc4c(cc3C(=O)N21)OCO4` (centres undefined), the T/C is, setting by setting: (endpoint: mean survival time, dose: 100.0 mg/kg/injection, schedule: Q01DX001 (ip), vehicle: Klucel (hydroxypropylcellulose) (HPC)) 92 % of control; (endpoint: mean survival time, dose: 200.0 mg/kg/injection, schedule: Q01DX001 (ip), vehicle: Klucel (hydroxypropylcellulose) (HPC)) 96 % of control; (endpoint: mean survival time, dose: 400.0 mg/kg/injection, schedule: Q01DX001 (ip), vehicle: Klucel (hydroxypropylcellulose) (HPC)) 96 % of control.

`Cn1c2cc(Cl)c(Cl)cc2nc2cc3c(cc21)c(Cl)c(=O)c1cc2cc(Cl)c(Cl)cc2cc13`: the T/C reads like this: under setting [5], 95 % of control; under setting [6], 95 % of control; (endpoint: mean survival time, dose: 400.0 mg/kg/injection, schedule: Q04DX003 (ip), vehicle: saline) 100 % of control.

On to `Cc1ccc(S(=O)(=O)OCCC=C(c2ccccc2)c2ccccc2)cc1`, for which the T/C was 101 % of control under setting [7], 101 % of control under setting [8] and 96 % of control under setting [9].

In the case of `CC(=O)/C=C/C=C\c1ccccc1`, the T/C is 104 % of control under setting [8]; 94 % of control under setting [9]; 98 % of control (endpoint: mean survival time, dose: 400.0 mg/kg/injection, schedule: Q01DX009 (ip), vehicle: saline with Tween-80).

On to `O=C(O)CCn1cccc1`, for which the T/C runs as follows: under setting [3], 91 % of control; under setting [4], 89 % of control.

As to `COc1ccc(-c2cc(C(=O)Nc3cc(C(F)(F)F)cc(C(F)(F)F)c3)c3ccccc3n2)cc1`, the T/C reads like this: (endpoint: median survival time, dose: 25.0 mg/kg/injection, schedule: Q01DX005 (ip), vehicle: DMSO) 100 % of control; (endpoint: median survival time, dose: 50.0 mg/kg/injection, schedule: Q01DX005 (ip), vehicle: DMSO) 98 % of control; (endpoint: median survival time, dose: 100.0 mg/kg/injection, schedule: Q01DX005 (ip), vehicle: DMSO) 98 % of control; (endpoint: median survival time, dose: 200.0 mg/kg/injection, schedule: Q01DX005 (ip), vehicle: DMSO) 109 % of control; (endpoint: median survival time, dose: 400.0 mg/kg/injection, schedule: Q01DX005 (ip), vehicle: DMSO) 106 % of control.

In the case of `CN=NNc1ccc(C(N)=O)cc1`, the T/C (endpoint: mean survival time, dose: 18.75 mg/kg/injection, schedule: Q01DX009 (ip), vehicle: saline) was 100 % of control; the T/C (endpoint: mean survival time, dose: 37.5 mg/kg/injection, schedule: Q01DX009 (ip), vehicle: saline) was 109 % of control; the T/C (endpoint: mean survival time, dose: 75.0 mg/kg/injection, schedule: Q01DX009 (ip), vehicle: saline) was 101 % of control; the T/C (endpoint: mean survival time, dose: 150.0 mg/kg/injection, schedule: Q01DX009 (ip), vehicle: saline) was 96 % of control; the T/C (endpoint: mean survival time, dose: 300.0 mg/kg/injection, schedule: Q01DX009 (ip), vehicle: saline) was 100 % of control.

On to `c1cnc2ncncc2n1`, for which the T/C is, setting by setting: (endpoint: mean survival time, dose: 12.5 mg/kg/injection, schedule: Q01DX009 (ip), vehicle: saline with Tween-80) 94 % of control and 102 % of control; (endpoint: mean survival time, dose: 25.0 mg/kg/injection, schedule: Q01DX009 (ip), vehicle: saline with Tween-80) 94 % of control and 102 % of control; under setting [7], 105 % of control and 106 % of control; under setting [8], 94 % of control and 104 % of control; under setting [9], 96 % of control and 110 % of control.

For the molecule `CN(C)c1ccc(N=Nc2cccc(C(=O)[O-])c2)cc1.CN(C)c1ccc(N=Nc2cccc(C(=O)[O-])c2)cc1.NC1CCCCC1N.[Pt+4]`, the T/C reads like this: (endpoint: median survival time, dose: 3.12 mg/kg/injection, schedule: Q04DX003 (ip), vehicle: saline with Tween-80) 116 % of control and 98 % of control; (endpoint: median survival time, dose: 6.25 mg/kg/injection, schedule: Q04DX003 (ip), vehicle: saline with Tween-80) 115 % of control and 109 % of control; (endpoint: median survival time, dose: 12.5 mg/kg/injection, schedule: Q04DX003 (ip), vehicle: saline with Tween-80) 101 % of control; (endpoint: median survival time, dose: 100.0 mg/kg/injection, schedule: Q04DX003 (ip), vehicle: saline with Tween-80) 375 % of control; (endpoint: median survival time, dose: 200.0 mg/kg/injection, schedule: Q04DX003 (ip), vehicle: saline with Tween-80) 104 % of control.
